Measured values: patent US8669251B2, “8-fluorophthalazin-1(2H)-one compounds” (Genentech, Inc., priority 2011, dated 2014)

The compounds below were run on production of CD69 by B lymphocytes in human whole blood (assay: CD69 Whole Blood Assay (CD69 Hu Blood FACS)). Conditions: human whole blood activated with goat F(ab')2 anti-human IgM, 20 hours; CD69 on CD20 positive cells by FACS; Table 2.
Format: cell-based
In short: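 Heparinized human whole blood from drug-free non-smoking donors was preincubated 30 min at 37° C. with compound (ten-point three-fold series, duplicate). It was then stimulated with goat F(ab′)2 anti-human IgM (50 μg/ml final) for 20 hours, stained, lysed and read by flow cytometry as MFI. IC50/IC70/IC90 were derived by nonlinear regression.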

**Q.** How did the CD69 Hu Blood FACS (IC70) turn out when `Cn1cc(-c2ccnc(-n3ncc4cc(C(C)(C)C)cc(F)c4c3=O)c2CO)cc(Nc2cc[nH]n2)c1=O` [Compound 152, 6-tert-butyl-8-fluoro-2-[3-(hydroxymethyl)-4-[1-methyl-6-oxo-5-(1H-pyrazol-3-ylamino)-3-pyridyl]-2-pyridyl]phthalazin-1-one] was run?
**A.** 45.9 nM

**Q.** For `CN1CCn2nc(Nc3cc(-c4ccnc(-n5ncc6cc(C(C)(C)C)cc(F)c6c5=O)c4CO)nn(C)c3=O)cc2C1` [Compound 153, 6-tert-butyl-8-fluoro-2-[3-(hydroxymethyl)-4-[1-methyl-5-[(5-methyl-6,7-dihydro-4H-pyrazolo[1,5-a]pyrazin-2-yl)amino]-6-oxo-pyridazin-3-yl]-2-pyridyl]phthalazin-1-one], which CD69 Hu Blood FACS (IC70) is on record?
**A.** 59.6 nM

**Q.** Which CD69 Hu Blood FACS (IC70) does the source give for `Cn1nc(-c2ccnc(-n3ncc4cc(C(C)(C)C)cc(F)c4c3=O)c2CO)cc(Nc2cc3n(n2)CCN(C2COC2)C3)c1=O` [Compound 155, 6-tert-butyl-8-fluoro-2-[3-(hydroxymethyl)-4-[1-methyl-5-[[5-(oxetan-3-yl)-6,7-dihydro-4H-pyrazolo[1,5-a]pyrazin-2-yl]amino]-6-oxo-pyridazin-3-yl]-2-pyridyl]phthalazin-1-one] here?
**A.** 26.6 nM

**Q.** Which CD69 Hu Blood FACS (IC70) does the source give for `Cn1cc(-c2ccnc(-n3ncc4cc(C(C)(C)C)cc(F)c4c3=O)c2CO)cc(Nc2ccc(C(C)(C)C#N)cn2)c1=O` [Compound 156, 2-[6-[[5-[2-(6-tert-butyl-8-fluoro-1-oxo-phthalazin-2-yl)-3-(hydroxymethyl)-4-pyridyl]-1-methyl-2-oxo-3-pyridyl]amino]-3-pyridyl]-2-methyl-propanenitrile] here?
**A.** 31 nM

**Q.** `Cc1cc(Nc2cc(-c3ccnc(-n4ncc5cc(C(C)(C)C)cc(F)c5c4=O)c3CO)cn(C)c2=O)ns1` [Compound 157, 6-tert-butyl-8-fluoro-2-[3-(hydroxymethyl)-4-[1-methyl-5-[(5-methylisothiazol-3-yl)amino]-6-oxo-3-pyridyl]-2-pyridyl]phthalazin-1-one] was tested. Which CD69 Hu Blood FACS (IC70) did it give?
**A.** 157 nM

**Q.** With `CCc1cc(Nc2cc(-c3ccnc(-n4ncc5cc(C(C)(C)C)cc(F)c5c4=O)c3CO)cn(C)c2=O)no1` [Compound 158, 6-tert-butyl-2-[4-[5-[(5-ethylisoxazol-3-yl)amino]-1-methyl-6-oxo-3-pyridyl]-3-(hydroxymethyl)-2-pyridyl]-8-fluoro-phthalazin-1-one] as the compound, how does the CD69 Hu Blood FACS (IC70) read?
**A.** 66.7 nM

**Q.** How did the CD69 Hu Blood FACS (IC70) turn out when `Cn1cc(-c2ccnc(-n3ncc4cc(C(C)(C)C)cc(F)c4c3=O)c2CO)cc(Nc2cnn(C(F)F)n2)c1=O` [Compound 159, 6-tert-butyl-2-[4-[5-[[2-(difluoromethyl)triazol-4-yl]amino]-1-methyl-6-oxo-3-pyridyl]-3-(hydroxymethyl)-2-pyridyl]-8-fluoro-phthalazin-1-one] was run?
**A.** 208 nM

**Q.** With `Cn1cc(-c2ccnc(-n3ncc4cc(C(C)(C)C)cc(F)c4c3=O)c2CO)cc(Nc2cnccn2)c1=O` [Compound 160, 6-tert-butyl-8-fluoro-2-[3-(hydroxymethyl)-4-[1-methyl-6-oxo-5-(pyrazin-2-ylamino)-3-pyridyl]-2-pyridyl]phthalazin-1-one] as the compound, how does the CD69 Hu Blood FACS (IC70) read?
**A.** 116 nM
